In brackets after ≈: the same amount, converted by molar mass. Read-outs that look alike come from different tables or passages of the source.
Assays:
[1] = tested on: bovine aortic endothelial cells; test: Organization of endothelial cells into capillary-like networks in type I collagen gel; format: cell-based; settings: 0.1 μg/ml Halofuginone; bFGF 1 ng/ml and heparin 1 μg/ml
Method: Type I collagen was prepared from the tail tendons of adult Sprague Dawley rats. Briefly, the collagen fibers were solubilized by a slow stirring for 48 h at 4° C. in a sterile, 1/1000 (w/v) acetic acid solution (300 ml for 1 g of collagen). The resulting solution was filtered through a sterile triple gauze and centrifuged at 16,000 g for 1 h at 4° C. The supernatant was then extensively dialyzed against 1/10. DMEM and stored at 4° C. The collagen matrix gel was obtained by simultaneously raising the pH and ionic strength of the collagen solution. For this purpose, 7 vol of collagen solution were quickly mixed with 1 vol of 10X Minimum Essential Medium and 2 vol sodium bicarbonate (0.15 M) [R. F. Nicosa and A. Ottinetti, Lab. Invest, Vol. 63, pp. 115-122 (1990)]. Bovine aortic endothelial cells were seeded into 16 mm wells of a 24-well plate and allowed to grow for 24 h, to obtain a subconfluent monolayer. The culture medium was then removed and 0.4 ml of the cold collagen mixture described above were poured on top of the cell monolayer and allowed to polymerize for 10 min at 37° C. […] The reorganization of the endothelial cell monolayer was monitored and photographed with a Zeiss inverted phase contrast photomicroscope [K. Monesano, et al., J. Cell Biol., Vol. 97, pp. 1648-1652 (1983)].

[2] = tested on: rat aortic rings; test: Microvessel formation from rat aortic rings embedded in type I collagen gel; format: cell-based
Method: Thoracic aortas were obtained from 1- to 2-month-old SD (Sprague-Dawley) rats sacrificed by decapitation [R. F. Nicosia and A. Ottinetti, Lab. Invest, Vol. 63, pp. 115-122 (1991)]. The aortas were immediately transferred to a Petri dish with PBS. The fibro-adipose tissue around the aorta was carefully removed under a dissecting microscope, and 1 mm-long aortic rings were sectioned and extensively rinsed in PBS. Type I collagen solution (0.2 ml) was added to each 16-mm well and gellation was allowed for 15 min at 37° C. Each aorta ring was transferred and positioned to the center of the gel and another 0.4 ml of the collagen solution was carefully poured on top of the ring. […]

[3] = tested on: bovine corneal endothelial cells; test: Incorporation of sulfate, proline, lysine and glycine into ECM (CDP and NCDP); format: cell-based; settings: eight days after seeding
Method: Corneal endothelial cells were seeded at a confluent density and grown as described in Example 5 above. The cells were cultured with or without Halofuginone in the presence of either Na2^35SO4 (FIG. 8A), ^3H-proline (FIG. 8B), ^14C-lysine (FIG. 8C) or ^14C-glycine (FIG. […]). Eight days after seeding, the cell layer was dissolved substantially as described in Example 5 above. The underlying ECM was then either trypsinized to determine the effect of Halofuginone on incorporation of labelled material into total protein, substantially as described in Example 5 above, or subjected to sequential digestions with collagenase and trypsin to evaluate the effect of Halofuginone on both collagenase-digestible proteins (CDP) and non-collagenase digestible proteins (NCDP).

[4] = tested on: bovine aortic endothelial cells; test: 3H-thymidine incorporation into vascular endothelial cells; format: cell-based; settings: 48 hours
Method: Cultures of vascular endothelial cells were established from bovine aorta as previously described [D. Gospodarowicz, et al., Proc. Natl. Acad. Sci. U.S.A., Vol. 73, p. 4120 (1979)]. Bovine aortic endothelial cells were plated (4×10^4 cells/16 mm well) in DMEM (1 g glucose/liter) supplemental with 10% calf serum, 50 U/ml penicillin, and 50 μ/ml streptomycin at 37° C. in 10% CO2 humidified incubators. Four days after plating, the subconfluent cells were exposed to increasing concentrations of Halofuginone (100-500 ng/ml), in the absence of presence of 1 ng/ml bFGF. ^3H-thymidine (1 μCi/well) was then added for an additional 48 hours, and DNA synthesis was assayed by measuring the radioactivity incorporated into trichloroacetic acid insoluble material [M. Benezra, et al., Cancer Res., Vol 52, pp. 5656-5662 (1992); I. Vlodavsky, et al., Proc. Natl. Acad. Sci. U.S.A. Vol. 84, pp. 2292-2296 (1987)].

[5] = tested on: collagen type I; settings: in vitro; cited from earlier work
[6] = tested on: rat mesengial cells; test: Sulfate and glycine incorporation into rat mesengial cell ECM; format: cell-based; settings: for inhibition at 0.05 µg/mL: 50 ng/ml Halofuginone; for inhibition at 0.2 µg/mL: 200 ng/ml Halofuginone
Method: Rat […] grown to confluency, 24 hours after seeding. The cells were then cultured with or without Halofuginone in the presence of either Na2^35SO4 (FIGS. 9A and 9B) or ^14C-glycine (FIGS. 9C and 9D). Eight days after sending, the cell layer was dissolved to expose the underlying ECM, washed and digested with collagenase to determine the effect of Halofuginone on CDP proteins, as shown in FIGS. 9A and 9C. The remaining material was digested with trypsin and subjected to β-scintillation counting to determine the effect of halofuginone on NCDP proteins, as shown in FIGS. 9B and 9D.

[7] = tested on: tumor cells; test: Tunnel staining of histological tumor sections (necrosis and apoptosis); format: in vivo; settings: tumors from halofuginone treated mice, FIG. 1F panel B
Description: Histological sections of the tumors were subjected to tunnel staining [Gavrieli, Y. et al., J. Cell Biol., Vol. 119, pp. 493-501, 1992], in order to evaluate the extent of tumor cell necrosis and apoptosis. […] The high degree of cell apoptosis and necrosis in halofuginone treated tumors is in all likelihood due to an inhibition of angiogenesis and […] deposition, both critical factors supporting growth and survival of the tumor cells.

Which “invasion of endothelial cells into collagen gel and organization into capillary-like tubes” value [1] does the source give for `O=C(CC1NCCCC1O)Cn1cnc2cc(Br)c(Cl)cc2c1=O` (stereo not shown) [Halofuginone] here?
The value was “completely inhibited”.

And the “inhibition of microvessel formation” value ([2]; 100 ng/ml Halofuginone)?
Its value is “almost complete inhibition”.

And the “inhibition of microvessel formation” value ([2]; 250 ng/ml Halofuginone)?
Its value is “Complete inhibition”.

And the “reversibility of inhibition of microvessel formation” value ([2]; removal of the drug on day 2)?
The value was “reversed upon removal of the drug on day 2”.

What about the “incorporation of sulfate, proline, lysine and glycine into both CDP and NCDP” value [3] of the same compound?
The value was “inhibited”.

And the IC50 ([4]; Bos taurus, Endothelial cell, absence of bFGF (FIG. 2A), read-out: concentration giving 50% inhibition of 3H-thymidine incorporation)?
Its IC50 is 0.1 µg/mL (≈ 0.241 µM).

And the “concentration giving 50% inhibition of 3H-thymidine incorporation” value ([4]; presence of 1 ng/ml bFGF (FIG. 2B))?
Its value is 100 ng/mL.

What about the “synthesis of collagen type I in bone chondrocytes” value [5] of the same compound?
The value was “inhibits the synthesis of collagen type I”.

What about the inhibition at 0.05 µg/mL ([6]; read-out: inhibition of glycine incorporation, CDP proteins) of the same compound?
Its inhibition at 0.05 µg/mL is ~80%.

And the inhibition at 0.05 µg/mL ([6]; read-out: inhibition of glycine incorporation, NCDP proteins)?
The inhibition at 0.05 µg/mL was ~80%.

What about the inhibition at 0.2 µg/mL ([6]; read-out: inhibition of sulfate incorporation, CDP proteins) of the same compound?
The inhibition at 0.2 µg/mL was ~30%.

And the inhibition at 0.2 µg/mL ([6]; read-out: inhibition of sulfate incorporation, NCDP proteins)?
Its inhibition at 0.2 µg/mL is ~70%.

And the “tunnel staining of tumor sections (cell apoptosis and necrosis)” value [7]?
Its value is “majority of cells in tumor sections derived from halofuginone treated mice exhibited an intense staining”.

From patent US6420371B1, “Quinazolinone-containing pharmaceutical compositions for prevention of neovascularization and for treating malignancies” (Madasit Medical Research Services & Development Co., Ltd., priority 1997, dated 2002)
